system: rabbit skeletal myofibrils (fast skeletal myofibrils); assay: Activation of fast skeletal myofibrils (PUMA assay, PK/LDH-coupled ATPase at pCa25); type: biochemical; conditions: AC1.4 determined according to the procedure of Example 39; reported as class symbols
Method: Preparation of Fast Skeletal Myofibrils.
Rabbit skeletal myofibrils were prepared based upon the method of Herrmann et al. (Biochem. 32(28):7255-7263(1993). Myofibrils were prepared from rabbit psoas muscle purchased from Pel-Freez Biologicals (Arkansas) within 2 days of ordering, stored on ice. Minced muscle was homogenized in 10 volumes of ice-cold “standard” buffer (50 mM Tris, pH 7.4, 0.1M potassium acetate, 5 mM KCl, 2 mM DTT, 0.2 mM PMSF, 10 μM leupeptin, 5 μM pepstatin, and 0.5 mM sodium azide) containing 5 mM EDTA and 0.5% Triton X-100 using an Omni-Macro homogenizer. Myofibrils were recovered by low speed centrifugation (3000 rpm for 10 minutes) and washed 2 times in the Triton X-100 containing buffer to ensure removal of cellular membrane. Following the Triton washes, myofibrils were washed 3 times in “standard” buffer containing 2 mM magnesium acetate. A final wash in assay buffer (12 mM PIPES, pH 6.8, 60 mM KCl, 1 mM DTT) was performed and brought to 10% sucrose for flash freezing in liquid nitrogen and storage at −80° C.
Activation of Fast Skeletal Myofibrils.
Fast fiber activators were identified by measuring the enzymatic activity of muscle myofibril preparations using the proprietary PUMA™ (see, e.g., U.S. Pat. Nos. 6,410,254, 6,743,599, 7,202,051, and 7,378,254) assay system. Myofibril preparations consisted of rabbit skeletal muscle (approximately 90% fast fibers) that had been mechanically homogenized and washed with a detergent (triton X-100) to remove cellular membranes. This preparation retained all of the sarcomeric components in a native conformation and the enzymatic activity was still regulated by calcium. Compounds were tested using a myofibril suspension and a level of calcium sufficient to increase enzymatic activity of the myofibrils to 25% of their maximal rate (termed pCa25). Enzymatic activity was tracked via a pyruvate kinase and lactate dehydrogenase-coupled enzyme system. This assay regenerates myosin-produced ADP into ATP by oxidizing NADH, producing an absorbance change at 340 nm. The buffering system was 12 mM Pipes, 2 mM MgCl2, 1 mM DTT at pH 6.8 (PM12 buffer).
Using procedures similar to those described herein, utilizing reagents and intermediates commercially available (e.g., Sigma-Aldrich, St. Louis, Mo.) or readily synthesized by one of skill in the art, the compounds in Table 2 were synthesized, characterized and tested. AC1.4 values were determined according to the procedure described in Example 39, and the reported median AC1.4 values are as follows: A=<1 uM; B=1-10 uM; C=10-20 uM; D=>20 uM.

SMILES	Mean AC1.4
Oc1ccnc(C2(CNc3ccc(-c4ccc5[nH]ncc5c4)nn3)CCC2)c1	D (D=>20 uM)
Oc1ccnc(C2(CNc3ccc(-c4ccc5cn[nH]c5c4)nn3)CCC2)c1	D (D=>20 uM)
NC(=O)c1cccc(-c2ccc(NCC3(c4ncccc4F)CCC3)nn2)c1F	B (B=1-10 uM)
NC(=O)c1cccc(-c2ccc(NCC3CCCc4ccccc43)nn2)c1 (stereo not shown)	B (B=1-10 uM)
NC(=O)c1cccc(-c2ccc(NCCc3ccccc3Cl)nn2)c1	B (B=1-10 uM)
CCCC(CNc1ccc(-c2cccc(C(N)=O)c2)nn1)c1ccccc1Cl (stereo not shown)	B (B=1-10 uM)
CC(CNc1ccc(-c2cccc(C(N)=O)c2)nn1)c1ccccc1F (stereo not shown)	B (B=1-10 uM)
CC(CNc1ccc(-c2cccc(C(N)=O)c2)nn1)N1CCCCC1=O (stereo not shown)	D (D=>20 uM)
CC(CNc1ccc(-c2cccc(C(N)=O)c2)nn1)N1CCCC1=O (stereo not shown)	D (D=>20 uM)
N#Cc1cccc(-c2ccc(NCCc3ccc(Cl)cc3Cl)nn2)c1	D (D=>20 uM)
NC(=O)c1cccc(-c2ccc(NCCc3ccc(Cl)cc3Cl)nn2)c1	C (C=10-20 uM)
NC(=O)c1cccc(-c2ccc(NCCc3cccc(Cl)c3)nn2)c1	B (B=1-10 uM)
NC(=O)c1cccc(-c2ccc(NCCc3ccc(Cl)c(Cl)c3)nn2)c1	C (C=10-20 uM)
NC(=O)c1cccc(-c2ccc(NCCc3ccc(F)c(F)c3)nn2)c1	C (C=10-20 uM)
NC(=O)c1cccc(-c2ccc(NCCc3cc(F)cc(F)c3)nn2)c1	D (D=>20 uM)
NC(=O)c1cccc(-c2ccc(NCCc3ccc(Cl)cc3)nn2)c1	D (D=>20 uM)
NC(=O)c1cccc(-c2ccc(NCC(CC3OCCO3)c3ccccc3F)nn2)c1 (stereo not shown)	D (D=>20 uM)

SMILES	Mean AC1.4
NC(=O)c1cccc(-c2ccc(N[C@@H]3C[C@H]3c3ccccc3)nn2)c1	D (D=>20 uM)
NS(=O)(=O)c1cccc(-c2ccc(NCC3(c4ncccc4F)CCC3)nn2)c1	A (A=<1 uM)
NC(=O)c1cccc(-c2ccc(NCC3(c4ncccc4F)CCC3)nn2)c1	A (A=<1 uM)
NC(=O)c1cccc(-c2ccc(NCC3(c4ccc(F)cn4)CCC3)nn2)c1	B (B=1-10 uM)
CC(C)(C)OC(=O)N(CC(C)(C)c1ncccc1F)c1ccc(-c2cccc(C(N)=O)c2)nn1	D (D=>20 uM)
NC(=O)c1ccc(-c2ccc(NCC3(c4ncccc4F)CCC3)nn2)c(F)c1	B (B=1-10 uM)
NC(=O)c1ccc(-c2ccc(NCC3(c4ncccc4F)CCC3)nn2)cc1	B (B=1-10 uM)
NC(=O)c1ccc(F)c(-c2ccc(NCC3(c4ccccn4)CCC3)nn2)c1	A (A=<1 uM)
NC(=O)c1ccc(F)c(-c2ccc(NCC3(c4ncccc4F)CCC3)nn2)c1	A (A=<1 uM)
COc1cccnc1C1(CNc2ccc(-c3cc(C(N)=O)ccc3F)nn2)CCC1	B (B=1-10 uM)
NC(=O)c1ccc(F)c(-c2ccc(NCC3(c4cc(O)ccn4)CCC3)nn2)c1	D (D=>20 uM)
COc1ccnc(C2(CNc3ccc(-c4cc(C(N)=O)ccc4F)nn3)CCC2)c1	B (B=1-10 uM)
NC(=O)c1ccc(F)c(-c2ccc(NCC3(c4cccc(O)n4)CCC3)nn2)c1	D (D=>20 uM)
COc1cccc(C2(CNc3ccc(-c4cc(C(N)=O)ccc4F)nn3)CCC2)n1	A (A=<1 uM)
CS(=O)(=O)Nc1cccc(-c2ccc(NCC3(c4ncccc4F)CCC3)nn2)c1	B (B=1-10 uM)
CS(=O)(=O)Nc1ccc(-c2ccc(NCC3(c4ncccc4F)CCC3)nn2)cc1	B (B=1-10 uM)
CC(C)(C)OC(=O)N1CCN(C(=O)c2ccc(NCC(C)(C)c3ccc(F)cc3)nn2)C(CO)C1 (stereo not shown)	D (D=>20 uM)

Results, then the molecule that gave them:

Mean AC1.4	SMILES
C (C=10-20 uM)	CC(C)(O)c1cccc(C(C)(C)CNc2ccc(-c3ccc4[nH]nc(N)c4c3)nn2)c1
B (B=1-10 uM)	CC(C)(CNc1ccc(-c2ccc3[nH]nc(N)c3c2)nn1)c1ccc(CCO)cc1
D (D=>20 uM)	CC(C)(O)c1ccc(C(C)(C)CNc2ccc(-c3ccc4[nH]nc(N)c4c3)nn2)cc1
A (A=<1 uM)	CC(C)(CNc1ccc(-c2ccc3nc(N)[nH]c(=O)c3c2)nn1)c1ccc(F)cc1
B (B=1-10 uM)	CC(C)(CNc1ccc(-c2cc(=O)[nH]c(N)n2)nn1)c1ccc(F)cc1
C (C=10-20 uM)	CC(C)(CNc1ccc(-c2ccc3c(=O)[nH]c(N)nc3c2)nn1)c1ccc(F)cc1
B (B=1-10 uM)	CC(C)(CNc1ccc(-c2ccc3[nH]nc(N)c3c2)nn1)c1cccc(O)c1
A (A=<1 uM)	CC(C)(CNc1ccc(-c2ccc3[nH]nc(N)c3c2)nn1)c1cccc(C#N)c1
D (D=>20 uM)	CC(C)(CNc1ccc(-c2ccc3[nH]nc(N)c3c2)nn1)c1cccc(C(N)=O)c1
D (D=>20 uM)	NC(=O)c1cccc(-c2ccc(NCCc3ccc(F)cc3F)nn2)c1
D (D=>20 uM)	NC(=O)c1cccc(-c2ccc(NCCc3ccc(F)cc3)nn2)c1
D (D=>20 uM)	COc1ccc(CCNc2ccc(-c3cccc(C(N)=O)c3)nn2)cc1
C (C=10-20 uM)	Cc1ccc(CCNc2ccc(-c3cccc(C(N)=O)c3)nn2)cc1
B (B=1-10 uM)	C[C@@H](CNc1ccc(-c2cccc(C(N)=O)c2)nn1)c1ccc(F)cc1
B (B=1-10 uM)	C[C@H](CNc1ccc(-c2cccc(C(N)=O)c2)nn1)c1ccc(F)cc1
D (D=>20 uM)	CC(C)(C)OC(=O)N(CC(C)(C)c1ccc(F)cc1)c1ccc(-c2cc(C(N)=O)ccc2F)nn1
D (D=>20 uM)	CC(C)(C)OC(=O)N(CC(C)(C)c1ccc(F)cc1)c1ccc(-c2cccc(C(N)=O)c2)nn1
D (D=>20 uM)	CC(C)(CNc1ccc(-c2ccc3[nH]nc(N)c3c2)nn1)c1ccc(C(N)=O)cc1
A (A=<1 uM)	CC(C)(CNc1ccc(-c2ccc3[nH]nc(N)c3c2)nn1)c1ccc(C#N)cc1
D (D=>20 uM)	CC(C)(CNc1ccc(C(=O)N2CCN(C(N)=O)CC2)nn1)c1ccc(F)cc1
B (B=1-10 uM)	CC(C)(CNc1ccc(-c2ccc3[nH]c(=O)[nH]c3c2)nn1)c1ccccc1CO

Mean AC1.4	SMILES
A (A=<1 uM)	CC(C)(CNc1ccc(-c2ccc3[nH]c(=O)[nH]c3c2)nn1)c1ccccc1F
B (B=1-10 uM)	CC(C)(CNc1ccc(-c2ccc3oc(=O)[nH]c3c2)nn1)c1ccc(F)cc1
D (D=>20 uM)	CC(C)(Cc1ccc(F)cc1)Nc1ccc(-c2ccc3[nH]c(=O)[nH]c3c2)nn1
A (A=<1 uM)	CC(C)(CNc1ccc(-c2ccc3[nH]c(=O)[nH]c3c2)nn1)c1ccccc1
D (D=>20 uM)	CC(C)(C)CNc1ccc(-c2ccc3[nH]c(=O)[nH]c3c2)nn1
B (B=1-10 uM)	O=c1[nH]c2ccc(-c3ccc(NCC4(c5ncccc5F)CCC4)nn3)cc2[nH]1
B (B=1-10 uM)	O=c1ncc(-c2ccc(NCC3(c4ccc(F)cc4)CCC3)nn2)c[nH]1
A (A=<1 uM)	O=c1[nH]c2ccc(-c3ccc(NCC4(c5ccc(F)cc5)CC4)nn3)cc2[nH]1
A (A=<1 uM)	CC(C)(CNc1ccc(-c2ccc3[nH]c(=O)oc3c2)nn1)c1ccc(F)cc1
B (B=1-10 uM)	CC(C)(CNc1ccc(-c2ccc3nc[nH]c(=O)c3c2)nn1)c1ccc(F)cc1
B (B=1-10 uM)	CC(C)(C)OC(=O)N(CC(C)(C)c1ccc(F)cc1)c1ccc(-c2cc(=O)[nH]c(N)n2)nn1
B (B=1-10 uM)	CC(C)(CNc1ccc(-c2ccc3[nH]nc(N)c3c2)nn1)c1ccccc1CO
D (D=>20 uM)	CN(C)CCc1cccc(C(C)(C)CNc2ccc(-c3ccc4[nH]nc(N)c4c3)nn2)c1
B (B=1-10 uM)	CC(C)(CNc1ccc(-c2ccc3[nH]nc(N)c3c2)nn1)c1cccc(CO)c1
D (D=>20 uM)	CC(C)(CNc1ccc(-c2ccc3[nH]nc(N)c3c2)nn1)c1ccc(CO)cc1
A (A=<1 uM)	CC1(C)CC1(CNc1ccc(-c2ccc3[nH]nc(N)c3c2)nn1)c1ccccc1 (stereo not shown)
A (A=<1 uM)	Nc1n[nH]c2ccc(-c3ccc(NCC4(c5ccccc5)CCC4)nn3)cc12
A (A=<1 uM)	Nc1n[nH]c2ccc(-c3ccc(NCC4(c5ccccc5)CC4)nn3)cc12
D (D=>20 uM)	CC(C)(CNc1ccc(CO)nn1)c1ccc(F)cc1
D (D=>20 uM)	CN(C)Cc1cccc(C(C)(C)CNc2ccc(-c3ccc4[nH]nc(N)c4c3)nn2)c1
D (D=>20 uM)	CN(C)Cc1ccc(C(C)(C)CNc2ccc(-c3ccc4[nH]nc(N)c4c3)nn2)cc1
